Test results published in patent publication US11925653B2, “Combination therapy effective against microorganisms, including drug resistant microorganisms” (Fleurir ABX LLC, priority 2021, dated 2024).
Marks after values point to notes of the source that are not given here.

Columns and labels:
[1] = system: P. mirabilis; assay: MIC and synergy checkerboard assay, broth microdilution (uUTI species); assay type: cell-based, Proteus mirabilis
Method: (§1) Minimum inhibitory concentration (MIC) assays were performed in a manner as described for the CLSI Agar dilution or broth microdilution assay guideline (see, Clinical Laboratory Standards Institute, 2009, Methods for Dilution Antimicrobial Susceptibility Tests for Bacteria That Grow Aerobically; Approved Standard, Eighth Edition, M07-A8, Vol. 29, No. 2). For example, known antibiotics or the compositions described herein were dissolved, serially diluted, and then added to tempered molten Mueller-Hinton Agar before pouring of plates; or were dissolved, and then serially diluted in 100 μL cation-adjusted Mueller-Hinton broth across the assay plate in the classical 2-fold geometric format. D-glucose-6-phosphate was included as a medium supplement in both agar, and broth at a concentration of 50 mg/L. Antibiotic concentrations for agar assay were at the final concentration. Antibiotic concentrations for broth microdilution in each well at this point were double what the final assay concentration would be. Bacterial inocula were prepared by swabbing several colonies from a fresh agar plate, and re-suspending the bacteria to a density that was the 0.5 McFarland turbidity standard, considered close or equivalent to 1×10^8 CFU/mL. For agar dilution, a steers replicator was utilized to deliver 1×10^4 CFU/spot. For broth microdilution, the bacterial inocula were diluted in the cation-adjusted Mueller-Hinton broth to 1×10^6 CFU/mL, and 100 μL was overlayered onto the wells containing a diluted antibiotic or a composition described. Following incubation as per the guideline, results were recorded as growth or no growth, and the lowest concentration of the antibiotic or the composition described where no growth was observed was declared the MIC.
To assay for synergy of antibacterial combinations, a recognized synergy checkerboard assay, adapted from the CLSI guideline microdilution assay, was utilized (see Eliopoulos, G. M., and Moellering, R. C, Jr., 1996. Antimicrobial Combinations, pg. 330-396. In: Lorian, V. (Ed.), Antibiotics in Laboratory Medicine, 4th Ed., Williams & Wilkins; Baltimore, MD). In the case of the agar dilution method, each antibiotic alone, or in combination was added to agar prior to plate pouring. For broth microdilution, the first compound (or antibiotic or agent) was diluted in cation-adjusted Mueller-Hinton broth across the plate along the horizontal axis with each well in a row containing 50 μL of an identical concentration of compound (or antibiotic). Along the vertical axis a dilution series of the second compound (or antibiotic) was dispensed. At this point the drug concentrations are four-fold of the final desired working concentration. […] Following incubation, wells with no growth are noted. […]

[2] = system: Staphylococcus aureus; assay: MIC and synergy checkerboard assay, broth microdilution; assay type: cell-based
Method: (§2) The described novel combination was tested against both reference, and clinically resistant strains of S. aureus, E, coli, K. pneumoniae, and P. aeruginosa. Reference and clinical isolates were obtained from the American Type Culture Collection (ATCC, Manasas, VA.) and International Health Management Associates, Inc. (Schaumberg, IL). Bacteria were cultured in trypticase soy broth, concentrated 10-fold by centrifugation, and cryopreserved in the same medium containing 20% glycerol by holding at −80° C. Every two weeks a small amount of frozen culture was removed aseptically, and streaked on fresh trypticase soy agar plates to act as a working inoculum. Following overnight growth at about 37° C., the plates were wrapped in parafilm, and held at about 4° C. Bacteria (4-5 colonies) were then aseptically transferred into broth growth medium for assays as needed.
as §1
(§3) To assay for synergy of antibacterial combinations, a recognized synergy checkerboard assay, adapted from the CLSI guideline microdilution assay, was utilized (see Eliopoulos, G. M., and Moellering, R. C, Jr., 1996. Antimicrobial Combinations, pg. 330-396. In: Lorian, V. (Ed.), Antibiotics in Laboratory Medicine, 4th Ed., Williams & Wilkins; Baltimore, MD). In the case of the agar dilution method, each antibiotic alone, or in combination was added to agar prior to plate pouring. For broth microdilution, the first compound (or antibiotic or agent) was diluted in cation-adjusted Mueller-Hinton broth across the plate along the horizontal axis with each well in a row containing 50 μL of an identical concentration of compound (or antibiotic). Along the vertical axis a dilution series of the second compound (or antibiotic) was dispensed. At this point the drug concentrations are four-fold of the final desired working concentration. […] Following incubation, wells with no growth are noted. […] FIC=(MIC-A combination/MIC-A alone)+(MIC-B combination/MIC-B alone).
(§4) In the above, FIC: Synergy=FIC<0.5; Additive=FIC>0.5-1; Indifferent=FIC>1-2; Antagonism=FIC>2-4.

[3] = system: Pseudomonas aeruginosa; assay: as above; assay type: cell-based
Method: as §2, §1, §3, §4

[4] = system: Escherichia coli; assay: MIC and synergy checkerboard assay, agar dilution; assay type: cell-based
Method: as §2, §1, §3, §4

[5] = system: K. pneumonia; assay: MIC and synergy checkerboard assay, agar dilution; assay type: cell-based
Method: as §2, §1, §3, §4

[6] = system: P. aeruginosa; assay: MIC and synergy checkerboard assay, agar dilution; assay type: cell-based
Method: as §2, §1, §3, §4

[7] = system: S. saprophyticus; assay: MIC and synergy checkerboard assay, broth microdilution (uUTI species); assay type: cell-based, Staphylococcus saprophyticus
Method: as §1, with “MIC. […]” for “MIC.”

[8] = system: E. faecalis; settings: cited from earlier work
[9] = system: E. coli; settings: cited from earlier work

C[C@@H]1O[C@@H]1P(=O)(O)O [Fosfomycin, cis-1,2-epoxypropyl phosphonic acid]
MIC (Combo as F/DP/SM; second compound as DP/SM) ([1]; P. mirabilis 1071120): 1 µg/mL
MIC (Combo as F/DP/SM; second compound as DP/SM) ([1]; P. mirabilis 1124256): 64 µg/mL
MIC (Combo as F/DP/SM; second compound as DP/SM) ([1]; P. mirabilis 1128681): 4 µg/mL
MIC (Combo as F/DP/SM; second compound as DP/SM) ([1]; P. mirabilis 1184042): 4 µg/mL
MIC (Combo as F/DP/SM; second compound as DP/SM) ([2]; S. aureus 829025 (MRSA strains)): 4 µg/mL
MIC (Combo as F/DP/SM; second compound as DP/SM) ([2]; S. aureus 829049 (MRSA strains)): 8 µg/mL
MIC (Combo as F/DP/SM; second compound as DP/SM) ([2]; S. aureus 903887 (MRSA strains)): 8 µg/mL
MIC (Combo as F/DP/SM; second compound as DP/SM) ([2]; S. aureus 920516 (MRSA strains)): 2 µg/mL
MIC (Combo as F/DP/SM; second compound as DP/SM) ([2]; S. aureus 920962 (MRSA strains)): 2 µg/mL
MIC (Combo as F/DP/SM; second compound as DP/SM) ([2]; S. aureus 927596 (MRSA strains)): 8 µg/mL
MIC (Combo as F/DP/SM; second compound as DP/SM) ([2]; S. aureus 938125 (MRSA strains)): 4 µg/mL
MIC (Combo as F/DP/SM; second compound as DP/SM) ([2]; S. aureus 953041 (MRSA strains)): 8 µg/mL
MIC (Combo as F/DP/SM; second compound as DP/SM) ([2]; S. aureus 956270 (MRSA strains)): 28 µg/mL
MIC (Combo as F/DP/SM; second compound as DP/SM) ([2]; S. aureus 956362 (MRSA strains)): 16 µg/mL
MIC (Combo as F/DP/SM; second compound as DP/SM) ([2]; S. aureus 967287 (MRSA strains)): 8 µg/mL
MIC (Combo as F/DP/SM; second compound as DP/SM) ([2]; S. aureus 974980 (MRSA strains)): 8 µg/mL
MIC (Combo as F/DP/SM; second compound as DP/SM) ([2]; S. aureus 979234 (MRSA strains)): 16 µg/mL
MIC (Combo as F/DP/SM; second compound as DP/SM) ([2]; S. aureus 1045190 (MRSA strains)): 2 µg/mL
MIC (Combo as F/DP/SM; second compound as DP/SM) ([2]; Staphylococcus aureus (918019 - MRSA)): 32 µg/mL
MIC (Combo as F/DP/SM; second compound as DP/SM) ([2]; Staphylococcus aureus (959797 - MRSA)): 16 µg/mL
MIC (Combo as F/DP/SM; second compound as DP/SM) ([2]; Staphylococcus aureus (ATCC 29213 - MSSA)): 32 µg/mL
MIC (Combo as F/DP/SM; second compound as DP/SM) ([2]; Staphylococcus aureus (ATCC 33591)): 64 µg/mL
MIC (Combo as F/DP/SM; second compound as DP/SM) ([2]; Staphylococcus aureus (MGH-04)): 128* μg/ml
MIC (Combo as F/DP/SM; second compound as DP/SM) ([2]; Staphylococcus aureus (USA-300 CDC- MRSA)): 64 µg/mL
MIC (Combo as F/DP/SM; second compound as DP/SM) ([3]; P. aeruginosa 826882): 64 µg/mL
MIC (Combo as F/DP/SM; second compound as DP/SM) ([3]; P. aeruginosa 880238): 64 µg/mL
MIC (Combo as F/DP/SM; second compound as DP/SM) ([3]; P. aeruginosa 906939): 64 µg/mL
MIC (Combo as F/DP/SM; second compound as DP/SM) ([3]; P. aeruginosa 926474): 32 µg/mL
MIC (Combo as F/DP/SM; second compound as DP/SM) ([3]; P. aeruginosa 945543): 32 µg/mL
MIC (Combo as F/DP/SM; second compound as DP/SM) ([3]; P. aeruginosa 945545): 64 µg/mL
MIC (Combo as F/DP/SM; second compound as DP/SM) ([3]; P. aeruginosa 945748): 64 µg/mL
MIC (Combo as F/DP/SM; second compound as DP/SM) ([3]; Pseudomonas aeruginosa (924190)): 256* μg/ml
MIC (Combo as F/DP/SM; second compound as DP/SM) ([3]; Pseudomonas aeruginosa (985543)): 128* μg/ml
MIC (Combo as F/DP/SM; second compound as DP/SM) ([4]; Escherichia coli 846439): 64 µg/mL
MIC (Combo as F/DP/SM; second compound as DP/SM) ([4]; Escherichia coli 846446): 4 µg/mL
MIC (Combo as F/DP/SM; second compound as DP/SM) ([4]; Escherichia coli 846450): 32 µg/mL
MIC (Combo as F/DP/SM; second compound as DP/SM) ([4]; Escherichia coli 846455): 128* μg/ml
MIC (Combo as F/DP/SM; second compound as DP/SM) ([4]; Escherichia coli 847149): 128* μg/ml
MIC (Combo as F/DP/SM; second compound as DP/SM) ([4]; Escherichia coli 854535): 128* μg/ml
MIC (Combo as F/DP/SM; second compound as DP/SM) ([4]; Escherichia coli 854566): 128* μg/ml
MIC (Combo as F/DP/SM; second compound as DP/SM) ([4]; Escherichia coli 857021): 64 µg/mL
MIC (Combo as F/DP/SM; second compound as DP/SM) ([4]; Escherichia coli 863078): 128* μg/ml
MIC (Combo as F/DP/SM; second compound as DP/SM) ([4]; Escherichia coli 863686): 64 µg/mL
MIC (Combo as F/DP/SM; second compound as DP/SM) ([4]; Escherichia coli ATCC 25922): 16 µg/mL
MIC (Combo as F/DP/SM; second compound as DP/SM) ([5]; K. pneumonia 848788): 256* μg/ml
MIC (Combo as F/DP/SM; second compound as DP/SM) ([5]; K. pneumonia 857147): 32 µg/mL
MIC (Combo as F/DP/SM; second compound as DP/SM) ([5]; K. pneumonia 857187): 128* μg/ml
MIC (Combo as F/DP/SM; second compound as DP/SM) ([5]; K. pneumonia 868968): 256* μg/ml
MIC (Combo as F/DP/SM; second compound as DP/SM) ([5]; K. pneumonia 868972): 128* μg/ml
MIC (Combo as F/DP/SM; second compound as DP/SM) ([5]; K. pneumonia 869028): 256* μg/ml
MIC (Combo as F/DP/SM; second compound as DP/SM) ([5]; K. pneumonia 870964): 256* μg/ml
MIC (Combo as F/DP/SM; second compound as DP/SM) ([5]; K. pneumonia 875638): 64 µg/mL
MIC (Combo as F/DP/SM; second compound as DP/SM) ([5]; K. pneumonia 892483): 256* μg/ml
MIC (Combo as F/DP/SM; second compound as DP/SM) ([5]; K. pneumonia 926439): 128* μg/ml
MIC (Combo as F/DP/SM; second compound as DP/SM) ([6]; P. aeruginosa 826882): 128* μg/ml
MIC (Combo as F/DP/SM; second compound as DP/SM) ([6]; P. aeruginosa 880238): 128* μg/ml
MIC (Combo as F/DP/SM; second compound as DP/SM) ([6]; P. aeruginosa 889058): 128* μg/ml
MIC (Combo as F/DP/SM; second compound as DP/SM) ([6]; P. aeruginosa 906939): 128* μg/ml
MIC (Combo as F/DP/SM; second compound as DP/SM) ([6]; P. aeruginosa 914881): 128* μg/ml
MIC (Combo as F/DP/SM; second compound as DP/SM) ([6]; P. aeruginosa 924190): 256* μg/ml
MIC (Combo as F/DP/SM; second compound as DP/SM) ([6]; P. aeruginosa 926474): 64 µg/mL
MIC (Combo as F/DP/SM; second compound as DP/SM) ([6]; P. aeruginosa 945543): 128* μg/ml
MIC (Combo as F/DP/SM; second compound as DP/SM) ([6]; P. aeruginosa 945545): 128* μg/ml
MIC (Combo as F/DP/SM; second compound as DP/SM) ([6]; P. aeruginosa 945748): 128* μg/ml
MIC (Combo as F/DP/SM; second compound as DP/SM) ([6]; P. aeruginosa PAO1): 32 µg/mL
MIC (Combo as F/DP/SM; second compound as DP/SM) ([7]; S. saprophyticus 1119421): 32 µg/mL
MIC (Combo as F/DP/SM; second compound as DP/SM) ([7]; S. saprophyticus 1124324): 32 µg/mL
MIC (Combo as F/DP/SM; second compound as DP/SM) ([7]; S. saprophyticus 1136894): 64 µg/mL
MIC [8]: 32 to 128 µg/mL
MIC [9]: 0.5 to 2 µg/mL
